A short description of series [1]: IP pharmacokinetics in C57BL/6 mice (plasma and brain). The format is in vivo, mouse. The settings on record: for AUC / Clearance / Kp / Cmax / half-life: IP 20 mg/kg; for Kp: brain/plasma, ip, 20 mg/kg; for half-life: read-out: Terminal half life. As to the method:
Pharmacokinetics: Methods: Chembridge Compound 6037874 (“Yan7874”) was provided as a powdered stock and dissolved in DMSO at 50 mg/ml. The compound was formulated as 5% DMSO/5% Cremaphor EL/90% 5% dextrose, pH 7.2 such that compound could be administered to mice at 10-20 mg/kg in a volume of 0.2 ml by IV bolus.
A second experiment was conducted using 24 C57BL/6 mice (NCI, male, 6 weeks of age). These mice were weighed and injected with 20 mg/kg of compound formulated as described above IP in 0.2 ml. […] The mice were sacrificed as above in groups of three by inhalation overdose of CO2 and blood and brain obtained and processed as above.
An analytical method was developed to detect Yan7874 using LC/MS/MS.
A standard curve was developed in plasma in the following manner. 100 μl of plasma is spiked with varying concentrations of Yan7874. The plasma is allowed to sit 10′ at room temperature after vortexing. 200 μl of acetonitrile is added to precipitate plasma proteins and release bound drug. After vortexing, the sample is incubated 10′ at room temperature. 700 μl of PBS is added and the sample is centrifuged at 14,000 rpm in a standard microcentrifuge for 5′. 900 μl of supernatant is added to 1 ml of PBS. The entire sample is passed over a Waters OASIS HLB solid phased extraction column already primed by addition of 2 ml methanol and 2 ml H2O. The column is washed once with 2 ml of 5% methanol/2% NH4OH in H2O and once with 2 ml of 5% methanol/2% acetic acid in H2O and compound is eluted by addition of 2 ml of methanol containing 2% NH4OH. 500 μl of this is added to 500 μl of H2O containing 0.2% formic acid (final formic acid 0.1%). Samples are prepared in the same manner without addition of spiked compound. Brain tissue is prepared by homogenizing in 3× volume of PBS (weight in grams×3=volume in ml to add). 100 μl of blank brain lysate is used for preparation of standard curve samples while 100 μl of sample brain lysate is used for preparation of samples. To calculate brain levels, the concentration in ng/ml calculated from the standard curve is multiplied by the total volume of lysate (a value in ml estimated from the 3× volume of PBS added +1× volume to account for brain tissue itself) and then divided by the weight of the brain in grams. A value of 3× above the signal obtained from blank plasma or brain lysate is designated the limit of detection (LOD). The LOD for plasma is 2640 and for brain 459. The limit of quantitation (LOQ) is the lowest concentration at which back calculation yields a concentration within 20% of theoretical. The LOQ for both plasma and brain is 5 ng/ml. In general back calculation of points on both curves yielded values within 20% of theoretical over 4 orders of magnitude (10,000 to 5 ng/ml) for both sample types.

The target of series [2] is T1, OX2R (Homo sapiens, UniProt O43614).
T1 sequence (O43614 1-444): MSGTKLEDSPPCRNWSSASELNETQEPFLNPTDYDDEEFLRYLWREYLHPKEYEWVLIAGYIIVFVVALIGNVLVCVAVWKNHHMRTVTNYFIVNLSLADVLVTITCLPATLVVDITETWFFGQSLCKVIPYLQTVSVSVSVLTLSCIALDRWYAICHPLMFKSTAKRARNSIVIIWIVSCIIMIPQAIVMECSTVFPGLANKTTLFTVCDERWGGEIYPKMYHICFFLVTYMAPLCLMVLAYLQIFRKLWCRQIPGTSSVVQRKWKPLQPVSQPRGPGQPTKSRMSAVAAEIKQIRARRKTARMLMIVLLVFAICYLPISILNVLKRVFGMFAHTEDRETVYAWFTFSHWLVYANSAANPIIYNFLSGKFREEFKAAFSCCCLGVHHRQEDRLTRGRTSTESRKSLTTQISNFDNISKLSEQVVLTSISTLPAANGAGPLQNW
The series is described as follows: NFAT-luciferase transcriptional reporter assay in transiently co-transfected HEK293T cells. Also on record: expressed in transfected cells; host or cells: HEK293T cells, transient co-transfection. The format is cell-based. (In general: Reporter assays use an easily measured gene product as a stand-in for the process of interest.)

Series [3] deals with T1, OX2R. The series is described as follows: CRE reporter assay, OX2R. Format: cell-based. Also on record: expressed in transfected cells; host or cells: HEK293T cells, transient co-transfection.
Series [4] deals with T2, GRP receptor (Homo sapiens, UniProt P30550).
T2 construct: Open reading frames of OX1R, OX2R and GRP (control) receptor were inserted into a bicistronic retrovirus expression vector; expressed in transfected cells; host or cells: CHO cells harboring ecotropic retroviral receptor, infected with retrovirus and selected with puromycin
The series is described as follows: Intracellular Calcium Transient Assay in CHO cells expressing control GRP receptor. Format: cell-based. The following applies: cells expressing an unrelated Gq-coupled GPCR (GRP receptor). As to the method:
(§1) DNA Construction: Open reading frames of OX1R, OX2R and GRP (control) receptor were inserted into a bicistronic retrovirus expression vector, pMXs-IRES-puror (pMXs-IP), which carried a FLAG™ epitope cDNA sequence at the beginning of the ORF sequences encoding their human polypeptides.
(§2) Transfection and retrovirus production: Transfection was carried out using FuGENE 6 (Roche Diagnostics Corp.) according to the manufacturer's recommendations. Retroviruse fluid was harvested after 48 hours post transfection.
(§3) Cell lines: To generate receptor expressing cells, CHO cells harboring ecotropic retroviral receptor were infected with a retroviral supernatant. After 24 hours post infection, the retrovirus supernatant was removed and infected cells were selected with 10 μg/ml of puromycin (Sigma-Aldrich, St. Louis, Mo.). […]
(§4) 0.5 ml aliquot of the cell suspension was stimulated by addition of 5 μl of compound dissolved in DMSO. Changes of [Ca^2+]i transients in cells were measured at RT by using CAF-110 Intracellular Ion Analyser (JASCO, Tokyo) with the excitation wave lengths of 340 nm and 380 nm and emission wavelength of 500 nm
Background: Calcium flux is commonly read through the fluorescence of an indicator in the cells.

The target in series [5] is T1, OX2R. The experiment in a line: Intracellular Calcium Transient Assay in OX2R-expressing CHO cells. The format is cell-based. The arrangement: expressed in transfected cells. Here is the method: as §1, §2, §3, §4

The structures appear in SMILES notation. Read-outs that look alike come from different tables or passages of the source.

T2 sequence (P30550 whole entry): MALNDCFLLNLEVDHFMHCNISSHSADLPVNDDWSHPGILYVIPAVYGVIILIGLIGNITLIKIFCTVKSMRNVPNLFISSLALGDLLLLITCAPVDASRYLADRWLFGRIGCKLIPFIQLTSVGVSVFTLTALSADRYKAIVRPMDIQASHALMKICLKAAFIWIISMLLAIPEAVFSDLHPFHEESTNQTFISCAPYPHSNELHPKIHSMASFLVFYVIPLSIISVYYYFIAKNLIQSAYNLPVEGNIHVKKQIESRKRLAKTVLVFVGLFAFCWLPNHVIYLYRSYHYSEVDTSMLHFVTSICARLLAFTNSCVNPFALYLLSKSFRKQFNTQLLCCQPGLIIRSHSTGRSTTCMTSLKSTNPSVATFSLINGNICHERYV

As a reminder, the AUC is concentration integrated over time. By Cmax is commonly meant the peak of the concentration-time curve. In general, half-life refers to how long it takes for the measured level to halve. As for `Cc1ccc(Cn2c(=N)n(CC(O)c3ccc(Cl)c(Cl)c3)c3ccccc32)cc1` (stereo not drawn) [Compound 130699], the “acute reaction after injection” value in series [1] (20 mg/kg IP) is “no acute reactions were noted”. In addition, the AUC in series [1] (brain) was 133,194 min*ng/g; in series [1] (male, C57BL/6, mouse, plasma, read-out: AUC (converted)), 2400 ng·h/mL. Moreover, the Clearance in series [1] (brain) came out at 2.9 g/min; in series [1] (plasma), 2.7 mL/min. For the same compound, the Kp in series [1] (male, C57BL/6, mouse, read-out: Blood Brain Penetration Ratio: AUC brain/AUC plasma) was 0.9; in series [1] (male, C57BL/6, mouse, read-out: Blood Brain Penetration Ratio: Cmax brain/Cmax plasma), 0.3. Moreover, the maximum concentration (Cmax) in series [1] (male, C57BL/6, mouse, brain) came to 337 ng/g; in series [1] (male, C57BL/6, mouse, plasma), 1080 ng/mL. Moreover, the half-life in series [1] (male, C57BL/6, mouse, brain) was 3.39 h; in series [1] (male, C57BL/6, mouse, plasma), 2.75 h. The “activation in transcriptional reporter assays” value in series [2] (HEK293T cells, NFAT-luciferase reporter plasmid and receptor cDNA plasmid) is reported as “dramatic activation”. Further, the “Fold Induction, OX2R_NFTA (1)” value in series [2] (assay (1)) turned out to be 10.94. In addition, in series [2] (assay (2)), the “Fold Induction, OX2R_NFTA (2)” value is on record as 35.566. Further, in series [3], the “reporter activation in a distinct CRE reporter system” value was “confirmed reporter activation”. The “Fold Induction, OX2R_CRE” value in series [3] (CRE reporter) is given as 5.1935. In addition, the “Ca2+ response” value in series [4] is reported as “no response”; in series [5], “robust Ca2+ response”.

The values above are taken from patent publication US8871794B2, “Small-molecule agonists for type-2 orexin receptor” (Board of Regents, The University of Texas System, priority 2008, dated 2014).
